Data taken from ChEMBL document CHEMBL5126589, “Drug design and DNA structural research inspired by the Neidle laboratory: DNA minor groove binding and transcription factor inhibition by thiophene diamidines” (Bioorg Med Chem, 2022).

Assays:
[1] = Binding affinity to biotin labeled hairpin DNA 5'-GAATTC-3' (unknown origin) assessed as equilibrium binding constant by sensor chip immobilization based surface plasmon resonance analysis
[2] = Binding affinity to biotin labeled hairpin DNA 5'-GAATTC-3' (unknown origin) assessed as dissociation rate constant by sensor chip immobilization based surface plasmon resonance analysis
[3] = Binding affinity to biotin labeled hairpin DNA 5'-GAATTC-3' (unknown origin) assessed as association constant by sensor chip immobilization based surface plasmon resonance analysis
[4] = Binding affinity to biotin labeled hairpin DNA 5'-GAATTC-3' (unknown origin) assessed as equilibrium dissociation constant by sensor chip immobilization based surface plasmon resonance analysis
[5] = Inhibition of PU.1 binding to biotin labeled lambdaB DNA (unknown origin) by sensor chip immobilization based surface plasmon resonance analysis

Row | SMILES | KA [1] | Kd [2] | Ka [3] | Kd [4] [nM] | IC50 [5] [nM]
1 | N=C(N)c1ccc(-c2ccc(-c3nc4ccc(C(=N)N)cc4[nH]3)s2)cc1 | 6.6 10^8/M | 8.9 10^-3/s | 5.8 10^6/M/s | 1.5 | 9
2 | N=C(N)c1ccc(-c2ccc(-c3cc4ccc(C(=N)N)cc4[nH]3)s2)cc1 |  | 2.9 10^-3/s | 4.5 10^5/M/s | 6.5 | 23
3 | N=C(N)c1ccc(-c2ccc(-c3ccc(C(=N)N)cc3)o2)cc1 [FURAMIDINE] |  |  |  | 140 | 
